# Data from article PMC10296347, “Identification of the Stapled α-Helical Peptide ATSP-7041 as a Substrate and Strong Inhibitor of OATP1B1 In Vitro” (Biomolecules, 2023).
# Molecular target: CYP2C9 (Homo sapiens, UniProt P11712)
# Details: microsomes
# Description: Text S1. Supplementary Materials and Methods.
# Male Human Liver Pooled S9; Tokyo, Japan). Midazolam, midazolam-d4, 1ʹ-hydroxymidazolam, testosterone, testosterone-d3, and 6β-hydroxytestosterone, were purchased […]
# (Fluorometric)) were purchased from BioVision. Inc. (Milpitas, CA, USA). Reversed vesicles […]
# were commercially available.
# 2. Evaluation of ATSP-7041 as a substrate of CYPs
# S9, with or without the NADPH generation system. S9 (A), at a 2 mg/mL protein concentration […]
# The reaction solution (400 μL) was then
# 3. Evaluation of ATSP-7041 as an inhibitor of CYPs […]
# the manufacturer’s protocol. […]
# the indicated periods of times. The substrates, positive control inhibitors, and fluorescence […]
# Table S1. Parameters used in LC/MS analysis.
# Table S2. Substrates and positive control inhibitors used for CYPs inhibition screening.
# Residual activity (% of control, i.e. without test chemical for inhibition) of human CYPs with ATSP-7041 (10 μM) in CYPs inhibition screening. The activity of CYPs were calculated as background-corrected reaction rates using the linear phase of reaction progress […]
# curve. Data are presented as the mean ± S.D. (n = 3). *
# Analyte Transition Polarity Ion source voltage Source temp. Collision energy LC gradient program […]
# 5% B (0-1 min) - 45% B (3 min)
# CYP isoform Substrate Concentration Positive control inhibitor Concentration Detection Kit No. […]
# CYP2C9, sequence (P11712 whole entry): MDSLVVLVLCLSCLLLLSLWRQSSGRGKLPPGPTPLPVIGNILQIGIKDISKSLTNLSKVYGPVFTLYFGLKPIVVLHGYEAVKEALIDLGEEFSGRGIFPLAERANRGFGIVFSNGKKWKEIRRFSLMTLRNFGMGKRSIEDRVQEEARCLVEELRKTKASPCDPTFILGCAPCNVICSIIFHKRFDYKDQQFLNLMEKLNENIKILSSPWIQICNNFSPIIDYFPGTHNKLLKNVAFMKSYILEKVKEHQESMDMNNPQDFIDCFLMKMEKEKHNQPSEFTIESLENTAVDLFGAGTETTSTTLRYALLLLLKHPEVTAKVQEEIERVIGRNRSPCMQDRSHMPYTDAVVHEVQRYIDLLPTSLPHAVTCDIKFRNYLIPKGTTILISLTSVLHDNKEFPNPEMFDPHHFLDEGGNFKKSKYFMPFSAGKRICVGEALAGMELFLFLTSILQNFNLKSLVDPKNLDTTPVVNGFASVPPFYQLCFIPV
compound,measurement,value
Nc1ccc(S(=O)(=O)Nc2ccnn2-c2ccccc2)cc1 [Sulfaphenazole],"Residual activity (% of control) CYP2C9, positive control inhibitor",8.59 ± 2.06 % of control
